Laboratory results as given in patent publication US20230293551A1, “USE OF OXYGENATED CHOLESTEROL SULFATES FOR TREATING AUTOIMMUNE CONDITIONS” (Durect Corporation, priority 2020, published 2023).

Key:
[1] = tested on: DNMT1/3a/3b; experiment: Enzyme kinetic study, overall statements on DNMT1/3a/3b activities; format: biochemical
Description: (§3) For the DNMT1 activity assay, the substrate solution, 0.001 mg/ml Poly(dI-dC):Poly(dI-dC) in 50 mM Tris-HCl, pH 7.5, 50 mM NaCl, 5 mM EDTA, 5 mM DTT, 1 mM PMSF, 5% glycerol, 0.01% Brij35, 1% DMSO was used. For the DNMT3a/3b activity assay, 0.0075 mg/ml Lambda DNA in 50 mM Tris-HCl, pH 7.5, 50 mM NaCl, 5 mM EDTA, 5 mM DTT, 1 mM PMSF, 5% glycerol, 1% DMSO, was used. The indicated DNMT1, DNMT3a, or DNMT3b was added to the appropriate substrate solution and gently mixed. […] The mixtures were first incubated for 15 min, then ^3H-SAM was added to the reaction mixture to initiate the reaction, and the mixture was incubated for 60 min at 30° C. Following incubation, the reaction mixture was finally transferred to filter-paper for detection of radioactivity counts.

[2] = Metabolite profiling of plasma, urine, feces after intravenous dose; format: in vivo, rats
Description: (§1) Nine male Sprague Dawley rats (Group 1) were designated for the pharmacokinetic phase, 3 male Sprague Dawley rats (Group 2) for the excretion mass balance phase, and 7 male Sprague Dawley rats (Group 3) and 9 male Long Evans rats (Group 4) for the tissue distribution phase. All animals received a single intravenous dose of [^14C]-25HC3S at 10 mg/kg and a target radioactivity of 225 µCi/kg. Blood samples were collected from all Group 1 animals at approximately 0.083, 0.25, 0.5, 1, 2, 4, 8, 12, 24, 48, and 72 hours post-dose. Urine and feces were collected from all Group 2 animals periodically through 168 hours post-dose. […] Following blood collection, animals were euthanized by CO2 inhalation and carcasses frozen in a dry ice/hexane bath for processing by quantitative whole body autoradiography. Whole blood, plasma, urine, feces, cage rinse, and cage wash were analyzed for total radioactivity by liquid scintillation counting.

[3] = biological target: DNMT1 (Homo sapiens, UniProt P26358); experiment: DNMT1 activity assay (3H-SAM, filter-paper radioactivity); format: biochemical
Chain of DNMT1 (P26358 whole entry, species assumed): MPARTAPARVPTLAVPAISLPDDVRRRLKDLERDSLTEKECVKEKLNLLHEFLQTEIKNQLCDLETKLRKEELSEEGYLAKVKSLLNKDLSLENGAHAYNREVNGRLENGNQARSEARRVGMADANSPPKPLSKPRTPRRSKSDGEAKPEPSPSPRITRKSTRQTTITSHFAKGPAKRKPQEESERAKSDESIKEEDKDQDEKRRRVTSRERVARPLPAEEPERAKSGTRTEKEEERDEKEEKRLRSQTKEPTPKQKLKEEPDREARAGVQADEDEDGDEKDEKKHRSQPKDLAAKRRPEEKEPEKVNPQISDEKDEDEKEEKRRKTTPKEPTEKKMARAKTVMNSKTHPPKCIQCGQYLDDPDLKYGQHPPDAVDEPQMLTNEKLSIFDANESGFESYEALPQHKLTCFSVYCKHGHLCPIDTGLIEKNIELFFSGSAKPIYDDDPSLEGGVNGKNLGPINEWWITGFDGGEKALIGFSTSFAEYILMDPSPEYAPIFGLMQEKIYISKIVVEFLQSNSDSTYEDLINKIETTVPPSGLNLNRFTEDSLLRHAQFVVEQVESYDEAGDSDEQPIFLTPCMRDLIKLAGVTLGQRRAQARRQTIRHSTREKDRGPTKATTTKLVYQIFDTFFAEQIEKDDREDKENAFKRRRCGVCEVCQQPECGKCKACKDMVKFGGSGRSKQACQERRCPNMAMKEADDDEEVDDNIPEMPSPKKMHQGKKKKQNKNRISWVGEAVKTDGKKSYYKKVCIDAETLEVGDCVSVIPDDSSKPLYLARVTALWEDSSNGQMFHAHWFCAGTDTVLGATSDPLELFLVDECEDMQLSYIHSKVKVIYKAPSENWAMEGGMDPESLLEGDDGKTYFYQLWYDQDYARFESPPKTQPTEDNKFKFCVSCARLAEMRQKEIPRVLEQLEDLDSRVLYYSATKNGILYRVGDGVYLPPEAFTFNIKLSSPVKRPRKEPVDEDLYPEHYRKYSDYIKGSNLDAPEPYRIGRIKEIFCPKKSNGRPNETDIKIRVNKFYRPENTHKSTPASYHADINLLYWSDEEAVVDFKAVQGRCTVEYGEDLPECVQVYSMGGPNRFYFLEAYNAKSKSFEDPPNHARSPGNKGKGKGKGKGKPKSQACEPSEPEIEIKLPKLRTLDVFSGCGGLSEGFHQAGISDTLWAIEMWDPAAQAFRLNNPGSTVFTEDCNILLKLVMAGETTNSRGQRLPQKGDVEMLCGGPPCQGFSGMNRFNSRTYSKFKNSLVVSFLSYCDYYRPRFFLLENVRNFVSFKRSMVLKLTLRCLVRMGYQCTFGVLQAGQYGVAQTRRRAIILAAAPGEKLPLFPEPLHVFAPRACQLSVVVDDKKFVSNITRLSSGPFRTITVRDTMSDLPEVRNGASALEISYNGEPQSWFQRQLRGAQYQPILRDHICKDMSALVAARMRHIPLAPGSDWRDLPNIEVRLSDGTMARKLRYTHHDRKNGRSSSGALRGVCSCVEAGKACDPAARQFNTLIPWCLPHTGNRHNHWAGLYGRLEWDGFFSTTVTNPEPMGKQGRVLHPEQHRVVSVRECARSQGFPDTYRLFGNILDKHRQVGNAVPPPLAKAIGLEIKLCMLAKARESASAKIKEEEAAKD
Description: as §3

[4] = Metabolite profiling of plasma and feces after oral dose; format: in vivo, rats; conditions: oral 75 mg/kg
Text: Radiolabeled components in plasma and feces extracts were profiled and identified using radio-high performance liquid chromatography (HPLC) and high performance liquid chromatography/mass spectrometry (HPLC/MS) methods.

[5] = Plasma pharmacokinetics of radioactivity after single intravenous dose; format: in vivo, male Sprague Dawley rats; conditions: single intravenous (bolus) dose 10 mg/kg
Text: (§2) The objectives of this study were to determine the plasma pharmacokinetics of [4-^14C]-25HC3S-derived radioactivity in male Sprague Dawley rats, determine the routes of elimination and excretion mass balance of [4-^14C]-25HC3S-derived radioactivity in male Sprague Dawley rats, determine the tissue distribution and tissue pharmacokinetics of [4-^14C]-25HC3S-derived radioactivity using quantitative whole body autoradiography methods in male Sprague Dawley and Long Evans rats following a single intravenous (bolus) dose, and to provide plasma, urine, and fecal homogenate samples for metabolite profiling of [4-^14C]-25HC3S-derived radioactivity.
as §1, with “µCi/kg.” for “µCi/kg. Blood samples were collected from all Group 1 animals at approximately 0.083, 0.25, 0.5, 1, 2, 4, 8, 12, 24, 48, and 72 hours post-dose. Urine and feces were collected from all Group 2 animals periodically through 168 hours post-dose.”

[6] = Excretion mass balance after single intravenous dose; format: in vivo, male Sprague Dawley rats; conditions: intravenous 10 mg/kg, over 168 hours
Text: as §2
as §1, with “µCi/kg.” for “µCi/kg. Blood samples were collected from all Group 1 animals at approximately 0.083, 0.25, 0.5, 1, 2, 4, 8, 12, 24, 48, and 72 hours post-dose. Urine and feces were collected from all Group 2 animals periodically through 168 hours post-dose.”

[7] = Tissue distribution by quantitative whole body autoradiography after intravenous dose; format: in vivo, male Sprague Dawley rats; conditions: intravenous 10 mg/kg
Text: as §2, §1

[8] = Tissue distribution after intravenous dose in pigmented rats; format: in vivo, male Long Evans rats; conditions: intravenous 10 mg/kg, first 168 hours post-dose
Text: as §2
as §1, with “µCi/kg.” for “µCi/kg. Blood samples were collected from all Group 1 animals at approximately 0.083, 0.25, 0.5, 1, 2, 4, 8, 12, 24, 48, and 72 hours post-dose. Urine and feces were collected from all Group 2 animals periodically through 168 hours post-dose.”

[9] = Plasma pharmacokinetics of radioactivity after single oral (gavage) dose; format: in vivo, rats; conditions: single oral (gavage) dose 75 mg/kg
Description: The terminal elimination phase T½ was 27.3 hours.

[10] = Tissue distribution by quantitative whole body autoradiography after oral dose; format: in vivo, male Sprague Dawley rats; conditions: oral 75 mg/kg

Compound: C[C@H](CCCC(C)(C)O)[C@H]1CC[C@H]2[C@@H]3CC=C4C[C@@H](OS(=O)(=O)O)CC[C@]4(C)[C@H]3CC[C@]12C [25HC3S, 25-hydroxycholesterol-3-sulfate]
- effect on enzymatic activities (DNMTs) [1]: potent inhibitors of DNMTs
- IC50 ([1]; DNMT-1, 3a, 3b, read-out: IC50s (kinetic study)): 1 to 10 µM
- % of dose in feces ([2]; pools 0 to 48 hours postdose): 2 % of dose
- share of the exposure (AUC) to 25HC3S related radioactivity in plasma ([2]; up to 1 hour postdose): approximately 54%

Compound: C[C@H](CCCC(C)(C)O)[C@H]1CC[C@H]2[C@@H]3CC=C4C[C@@H](O)CC[C@]4(C)[C@H]3CC[C@]12C [25HC, 25-Hydroxycholesterol]
- activates DNMT-1 activity [3]: 8 fold
- detection in plasma, urine, or feces samples [2]: Neither desmosterol sulfate nor 25-hydroxycholesterol was detected
- relative observed intensity (ROI) in plasma ([4]; 2 hour postdose plasma): 37%
- % of total dose in feces ([4]; pools 0 to 168 hours postdose): 1.9 % of total dose

Compound: CC(CO)CCC[C@@H](C)[C@H]1CC[C@H]2[C@@H]3CC=C4C[C@@H](OS(=O)(=O)O)CC[C@]4(C)[C@H]3CC[C@]12C (stereo partly drawn) [27HC3S, 27-hydroxycholesterol-3-sulfate]
- effect on enzymatic activities (DNMTs) [1]: potent inhibitors of DNMTs

Compound: C[C@@H](CO)CCC[C@@H](C)[C@H]1CC[C@H]2[C@@H]3CC=C4C[C@@H](O)CC[C@]4(C)[C@H]3CC[C@]12C [27HC, 27-Hydroxycholesterol, reference compound]
- effect on enzymatic activities (DNMTs) [1]: had no effect on other enzymes

Compound: CC(C)CCC[C@@H](C)[C@H]1CC[C@H]2[C@@H]3CC=C4C[C@@H](OS(=O)(=O)O)CC[C@]4(C)[C@H]3CC[C@]12C [Xol3S, Cholesterol 3-Sulfate, reference compound]
- effect on enzymatic activities (DNMTs) [1]: did not significantly affect enzymatic activities

Compound: CC(C)CCC[C@@H](C)[C@H]1CC[C@H]2[C@@H]3CC=C4C[C@@H](O)CC[C@]4(C)[C@H]3CC[C@]12C [Xol, Cholesterol]
- effect on enzymatic activities (DNMTs) [1]: did not significantly affect enzymatic activities

Compound: C[C@H](CCCC(C)(C)O)[C@H]1CC[C@H]2[C@@H]3CC=C4[14CH2][C@@H](OS(=O)(=O)O)CC[C@]4(C)[C@H]3CC[C@]12C [[4-^14C]-25HC3S]
- terminal elimination phase T½ [5]: 26.6 h
- recovered radioactivity in feces [6]: 83.0%
- AUClast in the liver [7]: ≤ 364,000 h.ng/g
- plasma:whole blood AUClast ratio [7]: 0.79
- tissue distribution of radioactivity [7]: broadly distributed and detected by quantitative whole body autoradiography in all tissues except the eye (lens)
- tissue:plasma ratio, liver ([7]; calculated using AUClast): 11.4
- tissue:plasma ratio, small intestine (wall) ([7]; calculated using AUClast): 7.44
- plasma or whole blood concentrations versus Sprague Dawley rats [8]: no substantial difference in plasma or whole blood concentrations
- plasma AUClast [9]: 96,400 h•ng equiv./g
- Uveal tract and brain concentrations [10]: approximately 1000 ng equiv./g
- plasma:whole blood AUClast ratio [10]: 1.12
- tissue Tmax [10]: ≤ 6 hours postdose
- tissue distribution of radioactivity [10]: broadly distributed and detected by quantitative whole body autoradiography in all tissues except the eye (lens)
- whole blood AUClast [10]: 127,000 h•ng equiv./g
- tissue:plasma ratio, adrenal gland ([10]; calculated using AUClast): 6.64
- tissue:plasma ratio, liver ([10]; calculated using AUClast): 6.96
- tissue:plasma ratio, small intestine (wall) ([10]; calculated using AUClast): 15.4

Compound: desmosterol sulfate
- detection in plasma, urine, or feces samples [2]: Neither desmosterol sulfate nor 25-hydroxycholesterol was detected
